Common to all, as to assay type: biochemical
Assay [1] addresses T1, K-Ras WT (Homo sapiens, UniProt P01116).
T1 construct: made in house; host or cells: E. coli BL21 (DE3)
Description: HTRF resonance energy transfer assay, K-Ras WT / SOS1 interaction. The note with it: HTRF assay of Example 5; read-out: IC50 against K-Ras WT. From the text: (§1) This assay can be also used to assess a selective inhibition or reduction of signaling output of a mutant Ras protein relative to a wildtype, or relative to a different mutant Ras protein. For example, the equilibrium interaction of wildtype Kras or K-Ras mutant (e.g., wildtype or a mutant thereof) with SOS1 (e.g., hSOS1) can be assessed as a proxy or an indication for a subject compound's ability to bind and inhibit Ras protein. HTRF assay detects from (i) a fluorescence resonance energy transfer (FRET) donor (e.g., antiGST-Europium) that is bound to GST-tagged K-Ras mutant to (ii) a FRET acceptor (e.g., anti-6His-XL665) bound to a His-tagged hSOS1.
(§2) The assay buffer can contain˜5 mM HEPES pH 7.4, ˜150 mM NaCl, ˜ 1 mM DTT, 0.05% BSA and 0.0025%(v/v) Igepal. A Ras working solution is prepared in an assay buffer containing typically a suitable amount of the protein construct (e.g., GST-tagged K-Ras mutant) and the FRET donor (e.g., antiGST-Eu(K) from Cisbio, France). A SOS1 working solution is prepared in an assay buffer containing suitable amount of the protein construct (e.g., His-hSOS1) and the FRET acceptor (e.g., anti-6His-XL665 from Cisbio, France). A suitable amount of the protein construct will depend on the range of activity or range of IC50 values being detected or under investigation. For detecting IC50 within a range of 500 nM, the protein constructs of the same range of molarity can be utilized.
(§3) A fixed volume of DMSO with or without test compound is transferred into a 384-well plate. Ras working solution is added to all wells of the test plate. SOS1 working solution is added to all wells except for those that are subsequently filled the inhibitor control solution. Upon incubation for about 10 minutes or longer, the fluorescence is measured with a M1000Pro plate reader (Tecan) using HTRF detection (excitation 337 nm, emission 1: 620 nm, emission 2: 665 nm). Compounds are tested in duplicates at different concentrations (for example, 10 μM, 2.5 μM, 0.63 μM, 0.16 μM, 0.04 μM, 0.01 μM test compound). The ratiometric data (i.e., emission 2 divided by emission 1) is used to calculate IC50 values against Ras using GraphPad Prism (GraphPad software). Following this general procedure, samples were tested with or without a subject compound disclosed herein including compounds exemplified in Table 1 to assess their abilities to inhibit a K-Ras mutant relative to another mutant or WT. Signaling output measured in terms of IC50 values can be obtained, a ratio of IC50 against one mutant relative to another mutant can be calculated. For instance, a selective reduction of K-Ras G12D signaling output can be evidenced by a ratio greater than one. In particular, a selective reduction of K-Ras G12D signaling relative to K-Ras WT signaling is evidenced as the ratio of IC50 (against K-Ras WT) to IC50 (against K-Ras G12D) is greater than 1.

In assay [2] the target is T2, K-Ras G12V (Homo sapiens, UniProt P01116, G12V).
T2 construct: made in house; host or cells: E. coli BL21 (DE3)
T2 sequence (P01116 1-188 isoform P01116-2 G12V): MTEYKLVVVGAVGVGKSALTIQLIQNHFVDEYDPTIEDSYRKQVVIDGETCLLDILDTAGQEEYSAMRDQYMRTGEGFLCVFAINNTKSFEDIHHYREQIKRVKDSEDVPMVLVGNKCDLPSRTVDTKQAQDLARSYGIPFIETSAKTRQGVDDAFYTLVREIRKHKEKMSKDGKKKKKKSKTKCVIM
The assay can be described thus: HTRF resonance energy transfer assay, K-Ras G12V / SOS1 interaction. The note with it: HTRF assay of Example 5; read-out: IC50 against K-Ras G12V.
Source text: as §1, §2, §3

Assay [3] deals with T3, K-Ras G12S (Homo sapiens, UniProt P01116, G12S).
T3 construct: made in house; host or cells: E. coli BL21 (DE3)
T3 sequence (P01116 1-188 isoform P01116-2 G12S): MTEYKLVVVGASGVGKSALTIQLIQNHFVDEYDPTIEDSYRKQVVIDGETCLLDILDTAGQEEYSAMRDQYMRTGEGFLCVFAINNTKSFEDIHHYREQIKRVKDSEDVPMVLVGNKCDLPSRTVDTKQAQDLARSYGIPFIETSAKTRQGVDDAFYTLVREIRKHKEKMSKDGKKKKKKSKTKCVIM
Description: HTRF resonance energy transfer assay, K-Ras G12S / SOS1 interaction. As to conditions: HTRF assay of Example 5; read-out: IC50 against K-Ras G12S.
Source text: as §1, §2, §3

The target in assay [4] is T4, K-Ras G12D (Homo sapiens, UniProt P01116, G12D).
T4 construct: made in house; host or cells: E. coli BL21 (DE3)
T4 sequence (P01116 1-188 isoform P01116-2 G12D): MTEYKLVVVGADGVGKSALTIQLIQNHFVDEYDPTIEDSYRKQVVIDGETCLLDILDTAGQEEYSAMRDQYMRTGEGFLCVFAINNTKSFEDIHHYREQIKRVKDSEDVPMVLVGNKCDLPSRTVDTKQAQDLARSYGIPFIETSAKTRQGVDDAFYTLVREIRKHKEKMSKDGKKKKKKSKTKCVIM
The assay can be described thus: HTRF resonance energy transfer assay, K-Ras G12D / SOS1 interaction. The note with it: HTRF assay of Example 5; read-out: IC50 against K-Ras G12D.
Source text: as §1, §2, §3

T1 sequence (P01116 1-188 isoform P01116-2): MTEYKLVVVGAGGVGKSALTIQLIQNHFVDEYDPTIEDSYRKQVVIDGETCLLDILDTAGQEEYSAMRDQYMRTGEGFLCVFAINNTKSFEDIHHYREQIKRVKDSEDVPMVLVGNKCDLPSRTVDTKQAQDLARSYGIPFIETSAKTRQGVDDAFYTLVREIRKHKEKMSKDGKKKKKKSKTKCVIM

With `C=C(C(F)F)[C@H]1COc2c(Cl)c(-c3ccc(F)c4sc(N)c(C#N)c34)c(F)c3nc(OC[C@@]45CCCN4C[C@H](F)C5)nc(c23)N1CC(F)F` (single isomer, unassigned) [Compound 629], the IC50 in assay [1], in assay [2], in assay [3] and in assay [4] was under 100 nM in each case.
As to `N#Cc1c(N)sc2c(F)ccc(-c3c(Cl)c4c5c(nc(OC[C@@]67CCCN6C[C@H](F)C7)nc5c3F)N(CC(F)F)[C@@H](c3cnco3)CO4)c12` (single isomer, unassigned) [Compound 763], the IC50 in assay [1], in assay [2], in assay [3] and in assay [4] was under 100 nM each time.
Take `N#Cc1c(N)sc2c(F)ccc(-c3c(Cl)c4c5c(nc(OC[C@@]67CCCN6C[C@H](F)C7)nc5c3F)N(C3CCOC3)[C@@H](C(F)F)CO4)c12` (stereo partly drawn) [Compound 620, 2-amino-4-((5R)-8-chloro-5-(difluoromethyl)-10-fluoro-2-(((2R,7aS)-2-fluorotetrahydro-1H-pyrrolizin-7a(5H)-yl)methoxy)-4-(tetrahydrofuran-3-yl)-5,6-dihydro-4H-[1,4]oxazepino[5,6,7-de]quinazolin-9-yl)-7-fluorobenzo[b]thiophene-3-carbonitrile]: the IC50 in assay [1] and in assay [4] was under 100 nM throughout.
On to `N#Cc1c(N)sc2c(F)ccc(-c3c(Cl)c4c5c(nc(OC[C@@]67CCCN6C[C@H](F)C7)nc5c3F)N(CC(F)F)[C@@H](C3CCC3)CO4)c12` [Compound 692, 2-amino-4-((S)-8-chloro-5-cyclobutyl-4-(2,2-difluoroethyl)-10-fluoro-2-(((2R,7aS)-2-fluorotetrahydro-1H-pyrrolizin-7a(5H)-yl)methoxy)-5,6-dihydro-4H-[1,4]oxazepino[5,6,7-de]quinazolin-9-yl)-7-fluorobenzo[b]thiophene-3-carbonitrile], for which the IC50 in assay [1], in assay [2] and in assay [4] was under 100 nM each time.
Regarding `C[C@H]1COc2c(Cl)c(-c3ccc(F)c4sc(N)c(C#N)c34)c(F)c3nc(OC[C@@]45CCCN4C[C@H](F)C5)nc(c23)N1CC(F)F` [Compound 783, 2-amino-4-((5S)-8-chloro-4-(2,2-difluoroethyl)-10-fluoro-2-(((2R,7aS)-2-fluorotetrahydro-1H-pyrrolizin-7a(5H)-yl)methoxy)-5-methyl-5,6-dihydro-4H-[1,4]oxazepino[5,6,7-de]quinazolin-9-yl)-7-fluorobenzo[b]thiophene-3-carbonitrile], the IC50 in assay [4] was under 100 nM.
For the compound `C[C@H]1CN(C2CCN(C(=O)C(F)F)CC2)c2nc(OC[C@@]34CCCN3C[C@H](F)C4)nc3c(F)c(-c4ccc(F)c5sc(N)c(C#N)c45)c(Cl)c(c23)O1` [Compound 822, 2-amino-4-((6S)-8-chloro-4-(1-(2,2-difluoroacetyl)piperidin-4-yl)-10-fluoro-2-(((2R,7aS)-2-fluorotetrahydro-1H-pyrrolizin-7a(5H)-yl)methoxy)-6-methyl-5,6-dihydro-4H-[1,4]oxazepino[5,6,7-de]quinazolin-9-yl)-7-fluorobenzo[b]thiophene-3-carbonitrile], the IC50 in assay [1], in assay [3] and in assay [4] was under 100 nM in each case.
`CS(=O)(=O)NCC1COc2c(Cl)c(-c3ccc(F)c4sc(N)c(C#N)c34)c(F)c3nc(OC[C@@]45CCCN4C[C@H](F)C5)nc(c23)N1CC(F)F` (stereo partly drawn) [Compound 867, N-((9-(2-amino-3-cyano-7-fluorobenzo[b]thiophen-4-yl)-8-chloro-4-(2,2-difluoroethyl)-10-fluoro-2-(((2R,7aS)-2-fluorotetrahydro-1H-pyrrolizin-7a(5H)-yl)methoxy)-5,6-dihydro-4H-[1,4]oxazepino[5,6,7-de]quinazolin-5-yl)methyl)methanesulfonamide]: the half-inhibitory concentration (IC50) in assay [1], in assay [3] and in assay [4] was under 100 nM in each case.
As for `C[C@H]1CN(CC2(N(C)C)CCC2)c2nc(OC[C@@]34CCCN3C[C@H](F)C4)nc3c(F)c(-c4ccc(F)c5sc(N)c(C#N)c45)c(Cl)c(c23)O1` [Compound 910, 2-amino-4-((6S)-8-chloro-4-((1-(dimethylamino)cyclobutyl)methyl)-10-fluoro-2-(((2R,7aS)-2-fluorotetrahydro-1H-pyrrolizin-7a(5H)-yl)methoxy)-6-methyl-5,6-dihydro-4H-[1,4]oxazepino[5,6,7-de]quinazolin-9-yl)-7-fluorobenzo[b]thiophene-3-carbonitrile], the IC50 in assay [1] and in assay [4] was under 100 nM each time.
Turning to `N#Cc1c(N)sc2c(F)ccc(-c3c(Cl)c4c5c(nc(OC[C@@]67CCCN6C[C@H](F)C7)nc5c3F)N(CC3(C(F)(F)F)CC3)CCO4)c12` [Compound 953, 2-amino-4-(8-chloro-10-fluoro-2-(((2R,7aS)-2-fluorotetrahydro-1H-pyrrolizin-7a(5H)-yl)methoxy)-4-((1-(trifluoromethyl)cyclopropyl)methyl)-5,6-dihydro-4H-[1,4]oxazepino[5,6,7-de]quinazolin-9-yl)-7-fluorobenzo[b]thiophene-3-carbonitrile], the IC50 in assay [1], in assay [3] and in assay [4] was under 100 nM throughout.
Take `N#Cc1c(N)sc2c(F)ccc(-c3c(Cl)c4c5c(nc(OC[C@@]67CCCN6C[C@H](F)C7)nc5c3F)N(CC(F)F)C(C3CCNC3)CO4)c12` (stereo partly drawn) [Compound 1034, 2-amino-4-(8-chloro-4-(2,2-difluoroethyl)-10-fluoro-2-(((2R,7aS)-2-fluorotetrahydro-1H-pyrrolizin-7a(5H)-yl)methoxy)-5-(pyrrolidin-3-yl)-5,6-dihydro-4H-[1,4]oxazepino[5,6,7-de]quinazolin-9-yl)-7-fluorobenzo[b]thiophene-3-carbonitrile]: the IC50 in assay [1], in assay [3] and in assay [4] was under 100 nM each time.
Take `C[C@H](Oc1nc2c3c(c(Cl)c(-c4ccc(F)c5sc(N)c(C#N)c45)c(F)c3n1)OCCN2C1CCCOCC1)[C@@H]1CCCN1C` (stereo partly drawn) [Compound 1121, 2-amino-4-(8-chloro-10-fluoro-2-((S)-1-((S)-1-methylpyrrolidin-2-yl)ethoxy)-4-(oxepan-4-yl)-5,6-dihydro-4H-[1,4]oxazepino[5,6,7-de]quinazolin-9-yl)-7-fluorobenzo[b]thiophene-3-carbonitrile]: the IC50 in assay [1], in assay [2] and in assay [3] was under 100 nM in each case.
Take `N#Cc1c(N)sc2c(F)ccc(-c3c(Cl)c4c5c(nc(OC[C@@]67CCCN6C[C@H](F)C7)nc5c3F)N(C3CCOC3)[C@@H](C3(C#N)CC3)CO4)c12` (stereo partly drawn) [Compound 1130, 2-amino-4-((5S)-8-chloro-5-(1-cyanocyclopropyl)-10-fluoro-2-(((2R,7aS)-2-fluorotetrahydro-1H-pyrrolizin-7a(5H)-yl)methoxy)-4-(tetrahydrofuran-3-yl)-5,6-dihydro-4H-[1,4]oxazepino[5,6,7-de]quinazolin-9-yl)-7-fluorobenzo[b]thiophene-3-carbonitrile]: the IC50 in assay [1], in assay [2] and in assay [3] was under 100 nM each time.
`CN1c2nc(OC[C@@]34CCCN3C[C@H](F)C4)nc3c(F)c(-c4ccc(F)c5sc(N)c(C#N)c45)c(Cl)c(c23)OCC[C@H]1C1(F)CC1` [Compound 1221, 2-amino-4-((5S)-9-chloro-11-fluoro-5-(1-fluorocyclopropyl)-2-(((2R,7aS)-2-fluorotetrahydro-1H-pyrrolizin-7a(5H)-yl)methoxy)-4-methyl-4,5,6,7-tetrahydro-[1,5]oxazocino[4,3,2-de]quinazolin-10-yl)-7-fluorobenzo[b]thiophene-3-carbonitrile]: the IC50 in assay [1], in assay [2] and in assay [3] was under 100 nM in each case.

(Values after patent US12209102B2, “Heterocyclic compounds and uses thereof” (Kumquat Biosciences Inc., priority 2022, dated 2025).)
